Measured values: paper PMC5675618, “Identification and validation of FGFR2 peptide for detection of early Barrett's neoplasia” (Oncotarget, 2017)

Experiments:
[1] = tested on: sections of human esophagus ex vivo; assay: Confocal microscopy of staining of human esophageal specimens ex vivo (SQ, BE, HGD, EAC)
Protocol: Formalin-fixed sections of human esophageal specimens were deparaffinized, and antigen retrieval was performed using standard methods. Briefly, the sections were incubated in xylene for 3 min 3X, washed with 100% ethanol for 2 min 2X, and washed with 95% ethanol for 2 min 2X. Rehydration was performed by washing in dH2O for 5 min 2X. Antigen unmasking was performed by boiling the slides in 10 mM sodium citrate buffer with 0.05% Tween at pH 6.0, and then maintaining at sub-boiling temperature for 15 min. The slides were cooled for 30 min, and the sections were washed in dH2O for 3 min 3X and in PBS for 5 min. Blocking was performed with DAKO protein blocking agent (X0909, DAKO) for 1 hour at RT. The peptides were incubated at a concentration of 1 μM for 10 min at RT. The sections were washed in PBS for 3 min 3X, and incubated with 1:1000 dilution of monoclonal anti-FGFR2 (Abcam, ab58201) overnight at 4°C.
The sections were then washed in PBS for 5 min 3X. A 1:500 dilution of AF488-labeled secondary antibody (goat anti-mouse) was added to each section and incubated for 30 min at RT. The secondary antibody solution was removed by washing with PBS for 5 min 3X. The sections were then mounted with ProLong Gold reagent containing DAPI (Invitrogen). The mean fluorescence intensities from 3 boxes (dimensions of 30×30 μm^2) located completely within the surface epithelium of each specimen were measured. […] Serial sections were processed for routine histology (H&E), and were reviewed by an expert gastrointestinal pathologist (HDA).

QhTERT wild-type cells = assay: Confocal fluorescence microscopy, binding to wild-type QhTERT cells; assay type: cell-based, human; settings: 1 μM peptide, 10 min at RT, 63X
Excerpt: All human esophageal specimens were obtained with written, informed patient consent per approval and guidelines of the University of Michigan Institutional Review Board (IRB). Human non-dysplastic Barrett's esophagus (BE) cells immortalized with hTert (QhTERT) were obtained from the American Type Culture Collection (ATCC) and cultured in keratinocyte-serum free medium containing bovine pituitary extract and human recombinant EGF (ThermoFisher #17005042). QhTERT cells with stable expression of FGFR2b or FGFR2c were provided (DGB). We cultured these cells with keratinocyte-serum free medium containing bovine pituitary extract and human recombinant EGF (ThermoFisher #17005042) and added 1 μg/mL of puromycin-dihydrochloride (Invitrogen #A11138-03). All cells were cultured at 37°C in 5% CO2, and were passaged using 0.25% EDTA containing trypsin (Mediatech Inc). A hemocytometer was used to determine cell number. […]
~10^3 QhTERT/wt, QhTERT/FGFR2b, and QhTERT/FGFR2c cells were grown on cover glass to ~80% confluence. […] Confocal fluorescence images were collected with Cy5.5 and DAPI filters (Leica Inverted SP5X 2-Photon FLIM confocal microscopes) using a 63X oil-immersion objective. Fluorescence intensities from 3 cells in each of 3 independent images were quantified using custom Matlab (Mathworks) software.

[2] = tested on: QhTERT cells that express FGFR2b; assay: Confocal fluorescence microscopy, binding to QhTERT cells that express FGFR2b; assay type: cell-based, human
Excerpt: (§1) All human esophageal specimens were obtained with written, informed patient consent per approval and guidelines of the University of Michigan Institutional Review Board (IRB). Human non-dysplastic Barrett's esophagus (BE) cells immortalized with hTert (QhTERT) were obtained from the American Type Culture Collection (ATCC) and cultured in keratinocyte-serum free medium containing bovine pituitary extract and human recombinant EGF (ThermoFisher #17005042). QhTERT cells with stable expression of FGFR2b or FGFR2c were provided (DGB). We cultured these cells with keratinocyte-serum free medium containing bovine pituitary extract and human recombinant EGF (ThermoFisher #17005042) and added 1 μg/mL of puromycin-dihydrochloride (Invitrogen #A11138-03). All cells were cultured at 37°C in 5% CO2, and were passaged using 0.25% EDTA containing trypsin (Mediatech Inc). A hemocytometer was used to determine cell number. Peptide synthesis reagents were obtained from either Anaspec or AAPPTEC with the highest grade available (>99% purity) and used without further purification. Solvents and other chemical reagents were obtained from Sigma-Aldrich, unless otherwise stated.
(§2) ~10^3 QhTERT/wt, QhTERT/FGFR2b, and QhTERT/FGFR2c cells were grown on cover glass to ~80% confluence. The cells were washed with PBS 1X and incubated with 1 μM of either peptide for 10 min at RT. The cells were then washed 3X in PBS, fixed with 4% paraformaldehyde (PFA) for 5 min, washed 1X with PBS, and then mounted on glass slides with ProLong Gold reagent containing DAPI (Invitrogen). Confocal fluorescence images were collected with Cy5.5 and DAPI filters (Leica Inverted SP5X 2-Photon FLIM confocal microscopes) using a 63X oil-immersion objective. Fluorescence intensities from 3 cells in each of 3 independent images were quantified using custom Matlab (Mathworks) software.

[3] = Fluorescence spectra of Cy5.5-labeled peptides; assay type: physicochemical; settings: 10 μM in PBS, excitation λex = 671 nm
Excerpt: We synthesized the 12 amino acid sequence SRRPASFRTARE (black) and attached the fluorophore Cy5.5 (red) via a GGGSK linker (blue) on the C-terminus, hereafter SRR^*-Cy5.5, Figure 1A. Cy5.5 was chosen for photostability and high quantum yield in the near-infrared (NIR) spectrum. We used a linker to prevent steric hindrance of the peptide by the dye. We then used a structural model (1EV2), [24] […] This domain is the same in either isoform FGFR2IIIb or FGFR2IIIc. We also used this model to develop a scrambled sequence SPSRERTFRARA for a control, Figure 1C. This peptide was also labeled with Cy5.5 via a GGGSK linker, hereafter SPS^*-Cy5.5. For SPS^*-Cy5.5, we calculated Et = −277.37. […] We purified SRR^*-Cy5.5 and […] to >97% on HPLC, and measured an experimental mass-to-charge (m/z) ratio on mass spectrometry of 2385.31 for both peptides that agreed with the expected value, Supplementary Figure 3.
Figure 1 Peptide specific for FGFR2 Chemical structure is shown for 12 amino acid (aa) peptide sequence (A) SRRPASFRTARE (SRR^*) found to be specific for FGFR2, and (B) scrambled peptide SPSRERTFRARA (SPS^*) used for control. A Cy5.5 fluorophore (red) is attached via a GGGSK linker (blue) to prevent steric hindrance.

[4] = tested on: QhTERT cells that express FGFR2c; assay: Confocal fluorescence microscopy, binding to QhTERT cells that express FGFR2c; assay type: cell-based, human
Excerpt: as §1, §2

[5] = tested on: sections of human gastric cancer; assay: Confocal microscopy of staining of human gastric cancer ex vivo
Excerpt: We observed good co-localization of peptide and antibody binding on merged images, Supplementary Figure 6C. Representative histology (H&E) for gastric cancer is shown, Supplementary Figure 6D. […] Representative histology (H&E) for normal stomach is shown, Supplementary Figure 6H.

[6] = tested on: QhTERT cells that express FGFR2c; assay: Apparent association time constant by flow cytometry; assay type: binding, human; settings: 5 μM, RT, 0 to 30 min
Protocol: We measured the apparent association time constant of the peptide to QhTERT/FGFR2c cells to assess binding onset. Cells were grown to ~80% confluence in 10 cm dishes, and detached with PBS-based cell dissociation buffer (Invitrogen). Cells (~10^5 were incubated with 5 μM SRR-Cy5.5 at RT for various time intervals ranging from 0 to 30 min. The cells were centrifuged, and washed with cold PBS. Flow cytometry analysis was performed as described above, and the median fluorescence intensity (y) were measured on flow cytometry at different time points (t) using Flowjo software. The rate constant k was calculated by fitting the data to a first order kinetics model, y(t) = Imax[1-exp^(-kt)], where Imax = maximum value using Prism 5.0 software (GraphPad Inc).

[7] = 1 μM peptide, 10 min at RT, confocal, 63X
[8] = compared with wild-type, log-transformed, ANOVA, 3 random cells on each of 3 slides

Question: Which results are given for SRRPASFRTARE [SRR^*-Cy5.5]?
Answer: mean T/B ratio, HGD and EAC versus BE and SQ ([1]; 3 boxes of 30×30 μm^2, n = 28, 33, 22, 17 specimens of SQ, BE, HGD, EAC): significantly higher; mean fluorescence intensity, HGD and EAC versus BE ([1]; ANOVA, 4 means, log-transformed data, 3 boxes of 30×30 μm^2): significantly greater mean fluorescence intensity; fluorescence intensity / staining, Barrett's esophagus (BE) ([1]; BE, n = 33 specimens, peptide 1 μM, 10 min at RT, antibody 1:1000 overnight at 4°C): minimal fluorescence intensity; fluorescence intensity / staining, esophageal adenocarcinoma (EAC) ([1]; EAC, n = 17 specimens, peptide 1 μM, 10 min at RT, antibody 1:1000 overnight at 4°C): strong signal; fluorescence intensity / staining, high-grade dysplasia (HGD) ([1]; HGD, n = 22 specimens, peptide 1 μM, 10 min at RT, antibody 1:1000 overnight at 4°C): strong signal; fluorescence intensity / staining, squamous (SQ) ([1]; SQ, n = 28 specimens, peptide 1 μM, 10 min at RT, antibody 1:1000 overnight at 4°C): minimal fluorescence intensity; cell surface fluorescence signal / binding (QhTERT wild-type cells): minimal signal; cell surface fluorescence signal / binding [2, 7]: strong signal; mean fluorescence intensity versus control SPS^*-Cy5.5 [2, 8]: significantly greater mean fluorescence intensity; peak emission λem [3]: 710 nm; cell surface fluorescence signal / binding [4, 7]: strong signal; mean fluorescence intensity versus control SPS^*-Cy5.5 [4, 8]: significantly greater mean fluorescence intensity; mean fluorescence intensity, gastric cancer versus normal, SRR*-Cy5.5 ([5]; P=7×10-17, paired two-sided t-test, 3 boxes of 30×30 μm2): significantly greater mean fluorescence intensity; fluorescence intensity / binding, gastric cancer ([5]; gastric cancer sections ex vivo, n = 33 patients): strong fluorescence intensity; staining, normal human stomach ([5]; normal stomach, comparison): minimal staining; apparent association time constant k ([6]; median fluorescence intensity by flow cytometry, first order kinetics, representative of 3 independent experiments): 0.16 min⁻¹; time scale for onset of binding ([6]; from k): ~ 6.2 min
